Consider 9 molecules from ChEMBL document CHEMBL1201862, “PubChem BioAssay data set” (2004).

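Grown in 96-well plates, cells were treated for 48 hours with each compound at five concentrations. Insufficient inhibition: endpoint recorded as highest concentration tested. GI50 is the concentration that inhibits growth by half.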 Activity calls are given as the source filed them. No stated cut-off is given here; in the data, active = GI50 up to about 1.1 µM and inactive = higher.

Among the test systems are UACC-62; M14; IGROV-1; CAKI-1; HT-29; U-251; SN12C; SNB-75; OVCAR-3; MOLT-4; CCRF-CEM; SK-MEL-2; HCT-116; LXFL 529; NCI-H522; TK-10.
Assay in all cases: NCI anticancer screen, dose series, 48 h

In the case of `CNCCCCN(C)/[N+]([O-])=N\O`, the GI50 in the assay with UACC-62, in the assay with M14, in the assay with IGROV-1, in the assay with CAKI-1, in the assay with HT-29 and in the assay with U-251 was > 100 µM (inactive) in each case. Also, the GI50 is > 100 µM (inactive) with SN12C; 49.2 µM (inactive) with SNB-75; > 100 µM (inactive) in the assay on OVCAR-3; > 100 µM (inactive) in the assay with MOLT-4; > 100 µM (inactive) in the assay on CCRF-CEM; > 100 µM (inactive) with SK-MEL-2. The GI50 with HCT-116, with LXFL 529 and in the assay with NCI-H522 was > 100 µM (inactive) each time.

As for `CC(SC(=O)Nc1ccc(/N=N/c2ccccc2)cc1)C(=O)O` (centres undefined), the GI50 was 28.8 µM (inactive) with UACC-62; > 100 µM (inactive) in the assay on M14; 24.3 µM (inactive) in the assay with IGROV-1; > 100 µM (inactive) with CAKI-1; 68.4 µM (inactive) with HT-29; > 100 µM (inactive) in the assay with U-251. In addition, the GI50 was > 100 µM (inactive) with SN12C; 6.4 µM (inactive) with SNB-75; > 100 µM (inactive) with OVCAR-3; 34 µM (inactive) in the assay with MOLT-4; 58.1 µM (inactive) in the assay with TK-10; 36 µM (inactive) in the assay with CCRF-CEM. Further, the GI50 is > 100 µM (inactive) in the assay on SK-MEL-2, > 100 µM (inactive) with HCT-116, 98.4 µM (inactive) with LXFL 529 and 68.4 µM (inactive) with NCI-H522.

Consider `CNC(=O)OCc1nc(SSc2nc(COC(=O)NC)c(COC(=O)NC)n2C)n(C)c1COC(=O)NC`, for which the GI50 with UACC-62, in the assay on M14, with IGROV-1, in the assay with CAKI-1, in the assay on HT-29 and with U-251 was > 100 µM (inactive) in each case. The GI50 in the assay on SN12C, in the assay on SNB-75, with OVCAR-3, in the assay with MOLT-4, in the assay with TK-10 and in the assay with CCRF-CEM was > 100 µM (inactive) each time. The GI50 in the assay on SK-MEL-2, in the assay on HCT-116, in the assay with LXFL 529 and in the assay on NCI-H522 was > 100 µM (inactive) throughout.

For `O=C(Cc1nc2ccccc2s1)Nc1ccc(Cl)cc1`, the GI50 was 82.2 µM (inactive) in the assay on UACC-62; 77.1 µM (inactive) in the assay with M14; > 100 µM (inactive) in the assay on IGROV-1; > 100 µM (inactive) in the assay with CAKI-1; > 100 µM (inactive) in the assay with HT-29; > 100 µM (inactive) with U-251. The GI50 was > 100 µM (inactive) in the assay with SN12C; 91.6 µM (inactive) with SNB-75; > 100 µM (inactive) with OVCAR-3; > 100 µM (inactive) with MOLT-4; > 100 µM (inactive) in the assay on TK-10; > 100 µM (inactive) in the assay on CCRF-CEM. The GI50 is 88.9 µM (inactive) in the assay on SK-MEL-2, > 100 µM (inactive) in the assay with HCT-116, 44.2 µM (inactive) in the assay with LXFL 529 and > 100 µM (inactive) in the assay on NCI-H522.

Regarding `Fc1ccccc1C1SCc2nc3ccccc3n21` (centres undefined), the GI50 in the assay with UACC-62 is 35 µM (inactive); with IGROV-1 it was 60.5 µM (inactive); in the assay on CAKI-1, 44.8 µM (inactive); in the assay with HT-29, > 100 µM (inactive); in the assay with SN12C it was 79.6 µM (inactive); in the assay on SNB-75, 72.8 µM (inactive). Further, the GI50 in the assay on OVCAR-3 is 38.4 µM (inactive); in the assay on MOLT-4, 30.4 µM (inactive); in the assay with TK-10, > 100 µM (inactive); with CCRF-CEM it was 43.1 µM (inactive); with SK-MEL-2, 76.4 µM (inactive); with HCT-116, 38.5 µM (inactive). In addition, the GI50 in the assay with LXFL 529 is 37.6 µM (inactive); in the assay with NCI-H522 it was 28 µM (inactive).

Consider `C/C(=N\NC(N)=S)c1ccc2c(c1)OCO2`, for which the GI50 in the assay on UACC-62, in the assay with M14, in the assay with IGROV-1, with CAKI-1, with HT-29 and in the assay on U-251 was > 100 µM (inactive) in each case. Besides, the GI50 is > 100 µM (inactive) with SN12C; > 100 µM (inactive) in the assay with SNB-75; > 100 µM (inactive) in the assay on OVCAR-3; > 100 µM (inactive) with MOLT-4; > 100 µM (inactive) in the assay on TK-10; 56.8 µM (inactive) in the assay with CCRF-CEM. In addition, the GI50 in the assay on SK-MEL-2 is > 100 µM (inactive); in the assay with HCT-116 it was > 100 µM (inactive); in the assay on LXFL 529, > 100 µM (inactive); in the assay on NCI-H522 it was 32.4 µM (inactive).

As to `N#CC1CC2(CCN1C(=O)c1ccccc1)OCCO2` (centres undefined), the GI50 in the assay with UACC-62, in the assay on M14, in the assay with IGROV-1, in the assay with CAKI-1, in the assay with HT-29 and with U-251 was > 100 µM (inactive) throughout. Besides, the GI50 in the assay on SN12C, in the assay on SNB-75, in the assay on OVCAR-3, in the assay on MOLT-4, in the assay on TK-10 and with CCRF-CEM was > 100 µM (inactive) throughout. The GI50 is > 100 µM (inactive) in the assay on SK-MEL-2, > 100 µM (inactive) in the assay on HCT-116, > 100 µM (inactive) with LXFL 529 and 0.308 µM (active) in the assay on NCI-H522.

In the case of `N#COc1ccc(Oc2ccccc2)cc1`, the GI50 in the assay with UACC-62 is 31.5 µM (inactive); in the assay with M14, 58.7 µM (inactive); in the assay on IGROV-1, 68.4 µM (inactive); in the assay on CAKI-1, 77.6 µM (inactive); with HT-29 it was 72.4 µM (inactive); in the assay on U-251 it was 42.7 µM (inactive). The GI50 was 62.4 µM (inactive) in the assay with SN12C; 39.8 µM (inactive) with SNB-75; > 100 µM (inactive) in the assay on OVCAR-3; 42.9 µM (inactive) in the assay on MOLT-4; > 100 µM (inactive) in the assay with TK-10; 24.5 µM (inactive) in the assay on CCRF-CEM. Moreover, the GI50 in the assay on SK-MEL-2 was 74.3 µM (inactive); in the assay on HCT-116, 61.7 µM (inactive); in the assay on LXFL 529 it was > 100 µM (inactive); in the assay on NCI-H522 it was 34.7 µM (inactive).

On to `COc1ccc(-c2cc(=O)c3ccc(O)cc3o2)c(OC)c1OC`, for which the GI50 with UACC-62 was 36.2 µM (inactive); in the assay with M14 it was 72.9 µM (inactive); with IGROV-1, > 100 µM (inactive); in the assay on CAKI-1, 89.3 µM (inactive); in the assay on HT-29, 60.4 µM (inactive); in the assay on SN12C, 82.8 µM (inactive). Besides, the GI50 with SNB-75 is 28.7 µM (inactive); in the assay with OVCAR-3 it was 41.9 µM (inactive); in the assay on TK-10 it was 78.3 µM (inactive); in the assay on CCRF-CEM, 42.8 µM (inactive); in the assay with SK-MEL-2 it was 27.2 µM (inactive); with HCT-116, 51.9 µM (inactive). Further, the figures for the GI50 in the assay with LXFL 529 and with NCI-H522 were 66.8 µM (inactive) and 25.4 µM (inactive), respectively.
